{"source": "paper PMC6556231", "about": "(Journal of medicinal chemistry, 2019)", "key": {"[1]": {"test": "Human liver microsomal Clint", "assay_type": "in vitro ADME", "details": "for microsomal CLint: human, HLM Clint (μL/min/mg); for microsomal CLint / HLM Clint: human liver microsomes"}, "Chemical stability": {"test": "Chemical stability", "assay_type": "physicochemical"}, "[2]": {"test": "Preliminary toxicity study in mice", "assay_type": "in vivo", "details": "100 mg/kg orally"}, "[3]": {"system": "Salmonella typhimurium strains", "test": "Ames fluctuation assay", "assay_type": "cell-based", "details": "with and without rat liver S9 fraction"}, "Aqueous pH 7.4": {"test": "Aqueous pH 7.4", "assay_type": "physicochemical", "details": "0.1 M phosphate buffer pH 7.4, 25 °C, 20-24 h"}, "HepG2 cells": {"system": "HepG2 cells", "test": "Drug toxicity to HepG2 cells", "assay_type": "cell-based, human", "details": "48 h, MTT"}, "[4]": {"test": "Human plasma protein binding", "assay_type": "in vitro ADME", "details": "equilibrium dialysis, 18 h, 37 °C"}}, "note": "Entries after “also recorded” stand apart in the source; their conditions may differ.", "data": [{"compound": "Cc1cc2c(Nc3cnccn3)ccnc2cc1-c1cnc(N2CCN(C)CC2)nc1", "note": "[9a, 6-Methyl-7-(2-(4-methylpiperazin-1-yl)pyrimidin-5-yl)-N-(pyrazin-2-yl)quinolin-4-amine]", "values": [{"measurement": "microsomal CLint", "setting": "[1]", "value": 130, "unit": "µL/min/mg"}]}, {"compound": "Cc1c(-c2cnc(N3CCN(C)CC3)nc2)ccc2c(Nc3cnccn3)ccnc12", "note": "[9b, 8-Methyl-7-(2-(4-methylpiperazin-1-yl)pyrimidin-5-yl)-N-(pyrazin-2-yl)quinolin-4-amine]", "values": [{"measurement": "microsomal CLint", "setting": "[1]", "value": 120, "unit": "µL/min/mg"}]}, {"compound": "CN1C[C@@H]2C[C@H]1CN2c1ncc(-c2ccc3c(Nc4cnccn4)ccnc3c2)cn1", "note": "[10a, 7-(2-((1S,4S)-5-Methyl-2,5-diazabicyclo[2.2.1]heptan-2-yl)pyrimidin-5-yl)-N-(pyrazin-2-yl)quinolin-4-amine]", "values": [{"measurement": "Increase in metabolic stability compared to 1", "setting": "[1]", "value": 4, "unit": "fold"}]}, {"compound": "CN1C[C@H]2C[C@@H]1CN2c1ncc(-c2ccc3c(Nc4cnccn4)ccnc3c2)cn1", "note": "[10b, 7-(2-((1R,4R)-5-Methyl-2,5-diazabicyclo[2.2.1]heptan-2-yl)pyrimidin-5-yl)-N-(pyrazin-2-yl)quinolin-4-amine]", "values": [{"measurement": "Increase in metabolic stability compared to 1", "setting": "[1]", "value": 4, "unit": "fold"}]}, {"compound": "CN1CCN(Nc2ncc(-c3ccc4c(Nc5cnccn5)ccnc4c3)cn2)CC1", "note": "[16f, 7-(2-((4-Methylpiperazin-1-yl)amino)pyrimidin-5-yl)-N-(pyrazin-2-yl)quinolin-4-amine]", "values": [{"measurement": "Increase in metabolic stability compared to 1", "setting": "[1]", "value": 10, "unit": "fold"}, {"measurement": "HLM Clint", "setting": "[1]", "value": 16, "unit": "µL/min/mg"}]}, {"compound": "CN1CCCN(c2ncc(-c3ccc4/c(=N/c5cnccn5)ccn(C)c4c3)cn2)CC1", "note": "[22a, (E)-1-Methyl-7-(2-(4-methyl-1,4-diazepan-1-yl)pyrimidin-5-yl)-N-(pyrazin-2-yl)quinolin-4(1H)-imine]", "values": [{"measurement": "Hydrolytic stability", "setting": "Chemical stability; acidic and basic conditions", "value": "hydrolytic stability was confirmed under both acidic and basic conditions"}, {"measurement": "Stability to hard and soft nucleophile", "setting": "Chemical stability; glutathione and cyanide", "value": "stable in the presence of both glutathione and cyanide"}, {"measurement": "Adverse effects in preliminary toxicity study", "setting": "[2]", "value": "no adverse effects"}, {"measurement": "Genotoxicity", "setting": "[3]", "value": "Neither 22a or its metabolites were found to be genotoxic; also recorded: neither it, nor its metabolites, are genotoxic"}, {"measurement": "microsomal CLint", "setting": "[1]", "value": 22, "unit": "µL/min/mg"}]}, {"compound": "tert-Butyl methyl(2-((4-(4-(pyrazin-2-ylamino)quinolin-7-yl)phenyl)amino)ethyl)carbamate [6c]", "values": [{"measurement": "Aq sol (μM) (thermodynamic solubility)", "setting": "Aqueous pH 7.4", "value": 3.0, "unit": "µM"}, {"measurement": "HepG2 TC50", "setting": "HepG2 cells", "value": 8.0, "unit": "µM"}, {"measurement": "HLM Clint", "setting": "[1]", "value": ">300", "unit": "µL/min/mg"}, {"measurement": "Human PPB (%)", "setting": "[4]", "value": 95, "unit": "%"}]}]}
